Experimental data as given in ChEMBL document CHEMBL1138310, “Effect of structural and conformation modifications, including backbone cyclization, of hydrophilic hexapeptides on their intestinal permeability and enzymatic stability” (J Med Chem, 2007).
*1 amine or outer side, *2 acyl side, *3 side chain or, on linkers, in order; H or OH if unused. Where a SMILES comes first, the peptide text is derived from it. Bridges are numbered along the chain shown (N, C = ends). [ ]: non-standard residue; d: D form. Phe(Nα-(CH2)3CO) = O=C([C@H](Cc1ccccc1)N(CCCC(=O)[*:3])[*:1])[*:2]; Phe(Nα-CH2CH2CO) = O=C([C@H](Cc1ccccc1)N(CCC(=O)[*:3])[*:1])[*:2]; N(2-aminoethyl)Phe = O=C([C@H](Cc1ccccc1)N(CCN[*:3])[*:1])[*:2]; NMeF = CN[C@@H](Cc1ccccc1)C(=O)O; Sar = CNCC(=O)O

What was measured:
Intestine = experiment: Apparent permeability across rat small intestine; type: ADME, tissue-based
[1] = Metabolic stability in rat brush border vesicles; type: ADME
[2] = Apparent permeability across Caco-2 cells; type: ADME, cell-based; details: human
[3] = Permeability in biomimetic membrane layer DMPC vesicles assessed as decrease in fluorescence at 30 uM by colorimetric mixed-vesicle assay; type: ADME, cell membranes
[4] = Apparent permeability across Caco-2 cells via paracellular pathway; type: ADME, cell-based; details: human
[5] = Lipophilicity, log D in octanol at pH 7.4; type: physicochemical
[6] = Permeability across artificial membrane by PAMPA model; type: ADME; details: read-out: permeability

| Compound | Papp (Intestine) [×10⁻⁶ cm/s] | Stability [1] | Papp [2] [×10⁻⁶ cm/s] | permeability [3] [%] | Papp [4] [×10⁻⁶ cm/s] | logD [5] | Papp [6] [×10⁻⁶ cm/s] |
| --- | --- | --- | --- | --- | --- | --- | --- |
| NC(=O)[C@H](Cc1ccccc1)N1CCNC(=O)CCCCN[C@@H](Cc2ccccc2)C(=O)NCC(=O)NCC(=O)NCC(=O)NCC1=O | 5.02 | Stable | 1.5 | – | – | – | – |
| CN[C@@H](Cc1ccccc1)C(=O)N[C@@H](C)C(=O)N[C@@H](C)C(=O)NCC(=O)NCC(=O)N(C)[C@@H](Cc1ccccc1)C(N)=O (H-[NMeF]AAGG[NMeF]-NH2) | 0.99 | – | 0.87 | – | – | – | – |
| CN[C@@H](Cc1ccccc1)C(=O)NCC(=O)NCC(=O)NCC(=O)NCC(=O)N(C)[C@@H](Cc1ccccc1)C(N)=O (H-[NMeF]GGGG[NMeF]-NH2) | 0.73 | – | 1.82 | 40 | – | – | – |
| CN[C@@H](Cc1ccccc1)C(=O)N(C)CC(=O)NCC(=O)NCC(=O)NCC(=O)N(C)[C@@H](Cc1ccccc1)C(N)=O (H-[NMeF][Sar]GGG[NMeF]-NH2) | 0.75 | – | 0.58 | 35 | 1.74 | – | – |
| CN[C@@H](Cc1ccccc1)C(=O)N(C)CC(=O)N(C)CC(=O)NCC(=O)NCC(=O)N(C)[C@@H](Cc1ccccc1)C(N)=O (H-[NMeF][Sar][Sar]GG[NMeF]-NH2) | 1 | – | 0.46 | – | – | – | – |
| NC(=O)[C@H](Cc1ccccc1)N1CCNC(=O)CCCN[C@@H](Cc2ccccc2)C(=O)NCC(=O)NCC(=O)NCC(=O)NCC1=O (H-[Phe(Nα-(CH2)3CO)]GGGG[N(2-aminoethyl)Phe]-NH2; lactam 1-6) | 4.2 | Stable | 2.73 | – | – | – | – |
| C[C@H](NC(=O)[C@H](C)NC(=O)[C@H](Cc1ccccc1)NCCC(=O)O)C(=O)N[C@@H](C)C(=O)N[C@@H](C)C(=O)N(CCN)[C@@H](Cc1ccccc1)C(N)=O (H-[Phe(Nα-CH2CH2CO)]AAAA[N(2-aminoethyl)Phe]-NH2) | 0.67 | – | 0.2 | – | – | – | – |
| C[C@@H]1NC(=O)[C@H](C)NC(=O)[C@H](Cc2ccccc2)NCCC(=O)NCCN([C@@H](Cc2ccccc2)C(N)=O)C(=O)[C@H](C)NC(=O)[C@H](C)NC1=O (H-[Phe(Nα-CH2CH2CO)]AAAA[N(2-aminoethyl)Phe]-NH2; lactam 1-6) | 5.63 | Stable | 1.47 | – | – | 0.49 | – |
| C[C@@H]1NC(=O)[C@H](C)NC(=O)[C@H](C)NC(=O)[C@H](Cc2ccccc2)NCCC(=O)NCCN([C@@H](Cc2ccccc2)C(N)=O)C(=O)CNC1=O (H-[Phe(Nα-CH2CH2CO)]AAAG[N(2-aminoethyl)Phe]-NH2; lactam 1-6) | 6.16 | Stable | 3.47 | – | – | – | – |
| C[C@@H]1NC(=O)[C@H](C)NC(=O)[C@H](Cc2ccccc2)NCCC(=O)NCCN([C@@H](Cc2ccccc2)C(N)=O)C(=O)CNC(=O)CNC1=O (H-[Phe(Nα-CH2CH2CO)]AAGG[N(2-aminoethyl)Phe]-NH2; lactam 1-6) | 5.26 | Stable | 3.22 | – | – | – | – |
| C[C@@H]1NC(=O)[C@H](Cc2ccccc2)NCCC(=O)NCCN([C@@H](Cc2ccccc2)C(N)=O)C(=O)CNC(=O)CNC(=O)CNC1=O (H-[Phe(Nα-CH2CH2CO)]AGGG[N(2-aminoethyl)Phe]-NH2; lactam 1-6) | 3.89 | Stable | 1.9 | – | – | – | – |
| NC(=O)[C@H](Cc1ccccc1)N1CCNC(=O)CCN[C@@H](Cc2ccccc2)C(=O)NCC(=O)NCC(=O)NCC(=O)NCC1=O (H-[Phe(Nα-CH2CH2CO)]GGGG[N(2-aminoethyl)Phe]-NH2; lactam 1-6) | – | Stable | 5.43 | 40 | – | -0.41 | – |
| CN1CC(=O)NCC(=O)NCC(=O)NCC(=O)N([C@@H](Cc2ccccc2)C(N)=O)CCNC(=O)CCN[C@@H](Cc2ccccc2)C1=O (H-[Phe(Nα-CH2CH2CO)][Sar]GGG[N(2-aminoethyl)Phe]-NH2; lactam 1-6) | 4.58 | Stable | 2.22 | 35 | 7.58 | -0.57 | – |
| CN1CC(=O)NCC(=O)NCC(=O)N([C@@H](Cc2ccccc2)C(N)=O)CCNC(=O)CCN[C@@H](Cc2ccccc2)C(=O)N(C)CC1=O (H-[Phe(Nα-CH2CH2CO)][Sar][Sar]GG[N(2-aminoethyl)Phe]-NH2; lactam 1-6) | 3.94 | Stable | 2.45 | – | – | – | – |
| CN1CC(=O)NCC(=O)N([C@@H](Cc2ccccc2)C(N)=O)CCNC(=O)CCN[C@@H](Cc2ccccc2)C(=O)N(C)CC(=O)N(C)CC1=O (H-[Phe(Nα-CH2CH2CO)][Sar][Sar][Sar]G[N(2-aminoethyl)Phe]-NH2; lactam 1-6) | 5.63 | Stable | 2.95 | – | – | – | – |
| CN1CC(=O)N(C)CC(=O)N([C@@H](Cc2ccccc2)C(N)=O)CCNC(=O)CCN[C@@H](Cc2ccccc2)C(=O)N(C)CC(=O)N(C)CC1=O (H-[Phe(Nα-CH2CH2CO)][Sar][Sar][Sar][Sar][N(2-aminoethyl)Phe]-NH2; lactam 1-6) | 4.87 | Stable | 1.56 | – | – | – | – |
| Nc1nc2c(ncn2COCCO)c(=O)[nH]1 [ACYCLOVIR] | – | – | – | – | – | – | 0.01 |
| Cc1cc(=O)n(-c2ccccc2)n1C [ANTIPYRINE] | – | – | – | – | – | – | 1.18 |
| OC[C@@H](O)[C@@H](O)[C@H](O)[C@H](O)CO [MANNITOL] | 5 | – | 2.2 | – | – | – | – |
| C[C@]12CC[C@H]3[C@@H](CCC4=CC(=O)CC[C@@]43C)[C@@H]1CC[C@@H]2O [TESTOSTERONE] | – | – | – | – | – | – | 8.67 |
